Consider 1 substance from EP1834669A1, “Use of specific hydrazone compounds for the treatment of viral infections” (Heinrich-Pette-Institut, priority 2006, dated 2007).

Entries after “also recorded” stand apart in the source; their conditions may differ. Like-named read-outs stand apart in the source and are kept apart here.

Series [1] concerns the target T1, S-adenosylmethionine decarboxylase (SAMDC) (Homo sapiens, UniProt P17707).
T1 sequence (P17707 68-334 limits assumed): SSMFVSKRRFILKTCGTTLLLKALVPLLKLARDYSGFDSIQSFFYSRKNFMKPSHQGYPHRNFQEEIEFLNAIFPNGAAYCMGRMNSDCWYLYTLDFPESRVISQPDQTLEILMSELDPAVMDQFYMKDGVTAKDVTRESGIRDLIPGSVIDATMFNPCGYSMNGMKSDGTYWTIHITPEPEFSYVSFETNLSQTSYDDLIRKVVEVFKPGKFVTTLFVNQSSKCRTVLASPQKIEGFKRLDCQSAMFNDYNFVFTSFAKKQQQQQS
T1 sequence (P17707 1-67 limits assumed): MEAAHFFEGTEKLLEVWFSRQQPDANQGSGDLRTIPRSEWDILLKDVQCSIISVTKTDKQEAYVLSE
The following applies: dihydrochloride, cited from earlier work.

The test system of series [2] is PBMCs from a healthy donor. The series can be described thus: Apoptosis assay, FACS with FITC-coupled annexin V. It counts as cell-based. The following applies: 0.4 µM, 12 days. The protocol: Analysis of cellular toxicity. (A) Cell viability assay. […] (B) Cell-cycle analysis. […] FACS-analysis was performed by DNA-staining with propidiumiodide. (C) Apoptosis-assay.
Analysis of Cellular Toxicity.

The subject of a further series is HIV-1 isolate FE9. The series is described as follows: Infection of PM1 cells with multidrug-resistant HIV-1 isolate FE9, p24 antigen in supernatant. It counts as cell-based. As to the method:
Culture medium was changed every third day and cells were split 1:1. Cell viabilities and p24 antigen levels were determined at the indicated days. The percentage of inhibition of virus replication in the drug-treated culture as compared with replication in the untreated control culture is shown in the upper panel. The respective virus growth curves as measured by p24 antigen levels in the culture supernatants are shown in the lower panel. n/a; not applicable. (B) Cellular toxicities were determined in the same cultures by alamarBlue™ assay (Serotec) for metabolic activity.
HIV-1 Infection Experiments. […]
(§1) PM1 cells were cultured in RPMI 1640 medium containing 10% fetal calf serum (Pansystems GmbH) and antibiotics (penicillin and streptomycin) and infected with the virus strains exactly as described elsewhere (Hauber, I., Bevec, D., Heukeshoven, J., Krätzer, F., Horn, F., Choidas, A., Harrer, T. & Hauber, J. (2005) J. Clin. Invest 115, 76-85). […] At the same time cell viability (measured by alamarBlue™ assay) and p24 antigen levels in the supernatant (Innotest HIV p24 Antigen mAb; Innogenetics N. V.) were determined. […]

For a further series, the system named is HIV-1 Rev pathway. The series is described as follows: HIV-1 gag-pol mRNA export with GPV-RRE / GPV-4xCTE constructs in transfected HeLaCD4-CAT cells. The following applies: 0.4 µM, HeLaCD4-CAT cells cultured 5 days, 48 hours post-transfection. Format: cell-based. An excerpt: Transcripts expressed from GPV-RRE access the CRM1/exporti nuclear export pathway. Messages expressed from GPV-4xCTE are transported across the nuclear envelope via the NXF1/TAP pathway. CMV-IE, cytomegalovirus immediate early promoter; pA, polyadenylation site; SD, splice donor; SA, splice acceptor; RRE, Rev reponse element; CTE, constitutive transport element. […] Likewise, cultures were transfected with GVP-4xCTE, a negative control plasmid (to maintain input DNA levels) and the constitutive internal control vector pBC12/CMV/SEAP. At 48 hours post-transfection cell supernatants were assayed for secreted alkaline phosphatase (SEAP) and p24 antigen levels. In addition, p55^Gag- and α-tubulin-specific (protein loading control) Western-blot analyses were performed from representative cell cultures at […].
Transfection Experiments and Plasmids. HeLaCD4-CAT cells were transiently transfected using Lipofectamine and Plus reagent according to the manufacturer's protocol (Invitrogen Corp.). […] At 48 hours post-transfection, cellular lysates were prepared and the levels of β-galactosidase (transfection efficiency control) and luciferase were assayed by ELISA (Roche Applied Science) or luminescence (Promega), respectively. […]

In the next series the test system is eIF-5A. The series can be described thus: Hypusine modification of eIF-5A, [14C]putrescine labeling, 2D gel electrophoresis and immunoprecipitation. The following applies: 0.4 µM, PM1 and HeLaCD4-CAT cells. It counts as cell-based. The protocol:
Protein separation was performed using equal amounts of radiolabeled extracts, by isoelectric focusing in the first dimension on an immobilized linear pH gradient (IPG) from pH 4.0 to 7.0, which was followed by SDS-PAGE separation in the second dimension. Only molecular mass of < 25.0 kDa is shown in the autoradiographies. Molecular mass standards are indicated in kDa on the right. […] Coomassie blue-staining of the gel served as protein loading control (lower panel).
Two-Dimensional Gel Electrophoresis and Immunoprecipitation Analysis. […] Gel analysis was performed by autoradiography as previously described (Hauber, I., Bevec, D., Heukeshoven, J., Krätzer, F., Horn, F., Choidas, A., Harrer, T. & Hauber, J. (2005) J. Clin. Invest 115, 76-85). For immunoprecipitation of eIF-5A, 2 x 10^6 HeLaCD4-CAT cells (obtained through the NIH AIDS Research and Reference Reagent Program from B.K.Felber and G.N.Pavlakis) were metabolically labeled as above. The various cellular extracts were prepared and analyzed using a rabbit polyclonal anti-eIF-5A antibody (Schatz, O., Oft, M., Dascher, C., Schebesta, M., Rosorius, O., Jaksche, H., Dobrovnik, M., Bevec, D. & Hauber, J. (1998) Proc. Natl. Acad. Sci. U. S. A 95, 1607-1612) as previously described in detail (Hauber, I., Bevec, D., Heukeshoven, J., Krätzer, F., Horn, F., Choidas, A., Harrer, T. & Hauber, J. (2005) J. Clin. Invest 115, 76-85).

The test system of a further series is HIV-1 BaL. The series is described as follows: HIV-1 BaL infection of PM1 cells, p24 antigen in supernatant. The following applies: HIV-1 BaL-infected PM1 cells, p24Gag antigen, day 6 and 9 post-infection; dihydrochloride. Format: cell-based. The protocol:
The culture medium was changed at day 3 and 6 post-infection and the cells were split 1:1. p24^Gag antigen levels and cell viabilities were determined at day 6 and 9 post-infection. The percentage of inhibition of virus replication in the drug-treated cell culture, as compared to the untreated controls is shown in the upper panel. Cell viabilities from the same cultures were determined by alamarBlue™ assay (Serotec) and is shown in the lower panel. (B) Gag-specific Western-blot analysis. […] (C) Analysis of de novo infection. […]
as §1

eIF-5A, sequence (P63241 whole entry): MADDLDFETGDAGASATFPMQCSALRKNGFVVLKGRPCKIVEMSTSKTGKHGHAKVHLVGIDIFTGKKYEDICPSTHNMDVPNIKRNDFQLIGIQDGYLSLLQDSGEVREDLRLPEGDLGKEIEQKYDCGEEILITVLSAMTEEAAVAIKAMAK

Regarding “2-[4-(aminoiminomethyl)-2,3-dihydro-1H-inden-1-ylidene]-hydrazinecarboximidamide dihydrochloride”, the figures for the “inhibition of SAMDC” value in series [1] and in series [1] (listed as 2-[4-(aminoiminomethyl)-2,3-dihydro-1H-inden-1-ylidene]-hydrazinecarboximidamide) were “potent inhibitor” and “efficient inhibitor”, respectively. Further, the “effects on cell death” value in series [2] was “did not induce deleterious effects”. Moreover, the “formation of progeny viruses” value in the series on HIV-1 isolate FE9 (PM1 cells infected with multiple HAART-resistant isolate FE9, 0.4 µM, dihydrochloride) is recorded as “Inhibition of a multiple HAART-resistant HIV-1 isolate; also recorded: inhibited”. Besides, the virus replication entry with HIV-1 isolate FE9 (applied concentration 0.4 µM) is on record as “perfectly blocked virus replication”. For the same substance, the “HIV-1 Rev pathway” value in the series with HIV-1 Rev pathway is listed as “Specific inhibition”. Also, the “hypusine-formation in eIF-5A” value in the series with eIF-5A is given as “prevents hypusine-formation”. Moreover, the “HIV-1 BaL replication” value in the series with HIV-1 BaL is “Inhibition of HIV-1 BaL replication; also recorded: pronounced antiviral effects”.
